Literature values in patent US20010034320A1, “NK1-receptor antagonists for treating restless legs syndrome” (priority 2000, published 2001).

Tested on: Restless Legs Syndrome (RLS)
Conditions: for effect on RLS complaint in therapy trials: RLS patients, therapy trials described in the background
[1] = objective polysomnographic measuring parameters, daily doses 0.1-0.9 mg

Compound | quality of sleep, frequency of waking or periodic leg movements in sleep (PLMS) [1] | sleep latency [1] | perceived symptoms such as paraesthesia, compulsive movement and tiredness during the day (patient-reported, daily doses 0.1-0.9 mg, 4 open trials, 2 double-blind placebo-controlled trials and a single case study) | effect on RLS complaint in therapy trials
Clc1cccc(Cl)c1NC1=NCCN1 [clonidine, 2-(2,6-dichloroanilino)-4,5-dihydroimidazole] | not affected | shortened | (statistically significant) reduction | –
NC(=O)N1c2ccccc2C=Cc2ccccc21 [Carbamazepine] | – | – | – | only partial relief from the complaint
N[C@@H](Cc1ccc(O)c(O)c1)C(=O)O [L-dopa, levodopa] | – | – | – | significant alleviation of the complaint
